Test results published in patent US20150080438A1, “6,7-Dihydro-5H-benzo[7]annulene derivatives, processes for their preparation, pharmaceutical products comprising them and their use for preparing medicaments” (Bayer Intellectual Property GmbH, priority 2011, published 2015).

Biological target: T1, oestrogen receptor (ER) (Homo sapiens, UniProt P03372)
T1 construct: These MVLN cells express, along with the functional oestrogen receptor (ER), a reporter construct; endogenous in cells; host or cells: MVLN cells (MCF7 derivative with ER-responsive luciferase reporter)
T1 sequence (P03372 1-595): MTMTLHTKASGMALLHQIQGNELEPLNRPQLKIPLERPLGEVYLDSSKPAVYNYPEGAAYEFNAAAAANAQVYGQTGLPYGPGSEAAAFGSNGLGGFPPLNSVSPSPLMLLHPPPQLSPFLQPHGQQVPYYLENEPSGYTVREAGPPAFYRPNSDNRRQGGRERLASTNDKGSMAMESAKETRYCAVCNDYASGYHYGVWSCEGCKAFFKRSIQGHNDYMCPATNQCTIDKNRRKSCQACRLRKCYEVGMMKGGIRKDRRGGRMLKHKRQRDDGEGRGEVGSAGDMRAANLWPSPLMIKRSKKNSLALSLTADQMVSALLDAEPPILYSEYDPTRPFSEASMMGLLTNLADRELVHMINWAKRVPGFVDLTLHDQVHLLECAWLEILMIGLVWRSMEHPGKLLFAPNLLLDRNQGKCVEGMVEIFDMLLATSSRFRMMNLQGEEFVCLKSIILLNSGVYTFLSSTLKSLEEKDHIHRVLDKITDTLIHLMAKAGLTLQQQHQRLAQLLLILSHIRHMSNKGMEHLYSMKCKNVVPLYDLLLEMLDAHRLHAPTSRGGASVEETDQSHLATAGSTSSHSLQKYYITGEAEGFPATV
Assay: Anti-oestrogenic action in MVLN cells (inhibition of estradiol-induced luciferase, transactivation antagonism)
Format: cell-based
Conditions: inhibition of estradiol-induced luciferase activity, read-out: Anti-oestrogenic action in vitro: MVLN transactivation antagonism IC50
From the text: The anti-oestrogenic action of the claimed pharmacological compounds was investigated in so-called MVLN cells in vitro. MVLN cells are derivatives of the hormone-responsive MCF7 breast cancer cells known by a person skilled in the art. These MVLN cells express, along with the functional oestrogen receptor (ER), a reporter construct, which under ER-activation expresses luciferase. Determination of the activity of the induced luciferase permits a direct conclusion on the oestrogen properties of substances. To investigate the anti-oestrogenic properties of the pharmacological compounds, they were investigated in the presence of oestrogen for their potential for inhibiting the luciferase signal induced by estradiol.
The claimed pharmacological test substances were investigated in MVLN cells for their anti-oestrogenic potential, as described (see Table 2).

CN(CCCCCC1=C(c2cccc(O)c2)CCCc2cc(O)ccc21)CCC[S+]([O-])CCCC(F)(F)C(F)(F)F (racemic) [Example 4, 8-(3-Hydroxyphenyl)-9-[5-(methyl{3-[(RS)-(4,4,5,5,5-pentafluoropentyl)sulphinyl]propyl}amino)pentyl]-6,7-dihydro-5H-benzo[7]annulen-3-ol]
IC50: 3 nM

CN(CCCCCC1=C(c2cccc(O)c2)CCCc2cc(O)ccc21)CCCCC[S+]([O-])CCCC(F)(F)C(F)(F)F (racemic) [Example 8, 8-(3-Hydroxyphenyl)-9-[5-(methyl{5-[(RS)-(4,4,5,5,5-pentafluoropentyl)sulphinyl]pentyl}amino)pentyl]-6,7-dihydro-5H-benzo[7]annulen-3-ol]
IC50: 8 nM

CN(CCCCCC[S+]([O-])CCCC(F)(F)C(F)(F)F)CCCCCC1=C(c2cccc(O)c2)CCCc2cc(O)ccc21 (racemic) [Example 10, 8-(3-Hydroxyphenyl)-9-[5-(methyl{6-[(RS)-(4,4,5,5,5-pentafluoropentyl)sulphinyl]hexyl}amino)pentyl]-6,7-dihydro-5H-benzo[7]annulen-3-ol]
IC50: 2 nM

CN(CCCCCCC1=C(c2cccc(O)c2)CCCc2cc(O)ccc21)CCC[S+]([O-])CCCC(F)(F)C(F)(F)F (racemic) [Example 12, 8-(3-Hydroxyphenyl)-9-[6-(methyl{3-[(RS)-(4,4,5,5,5-pentafluoropentyl)sulphinyl]propyl}amino)hexyl]-6,7-dihydro-5H-benzo[7]annulen-3-ol]
IC50: 2 nM

CN(CCCCCCC1=C(c2cccc(O)c2)CCCc2cc(O)ccc21)CCCC[S+]([O-])CCCC(F)(F)C(F)(F)F (racemic) [Example 14, 8-(3-Hydroxyphenyl)-9-[6-(methyl{4-[(RS)-(4,4,5,5,5-pentafluoropentyl)sulphinyl]butyl}amino)hexyl]-6,7-dihydro-5H-benzo[7]annulen-3-ol]
IC50: 2 nM

CN(CCCCCCC1=C(c2cccc(O)c2)CCCc2cc(O)ccc21)CCCCC[S+]([O-])CCCC(F)(F)C(F)(F)F (racemic) [Example 16, 8-(3-Hydroxyphenyl)-9-[6-(methyl{5-[(RS)-(4,4,5,5,5-pentafluoropentyl)sulphinyl]pentyl}amino)hexyl]-6,7-dihydro-5H-benzo[7]annulen-3-ol]
IC50: 2 nM

CN(CCCCCCC1=C(c2cccc(O)c2)CCCc2cc(O)ccc21)CCCCCC[S+]([O-])CCCC(F)(F)C(F)(F)F (racemic) [Example 18, 8-(3-Hydroxyphenyl)-9-[6-(methyl{6-[(RS)-(4,4,5,5,5-pentafluoropentyl)sulphinyl]hexyl}amino)hexyl]-6,7-dihydro-5H-benzo[7]annulen-3-ol]
IC50: 2 nM

CN(CCCCCCC1=C(c2ccc(O)cc2)CCCc2cc(O)ccc21)CCC[S+]([O-])CCCC(F)(F)C(F)(F)F (racemic) [Example 26, 8-(4-Hydroxyphenyl)-9-[6-(methyl{3-[(RS)-(4,4,5,5,5-pentafluoropentyl)sulphinyl]propyl}amino)hexyl]-6,7-dihydro-5H-benzo[7]annulen-3-ol]
IC50: 1 nM

CN(CCCCCCC1=C(c2ccc(F)c(O)c2)CCCc2cc(O)ccc21)CCCC[S+]([O-])CCCC(F)(F)C(F)(F)F (racemic) [Example 30, 8-(4-Fluoro-3-hydroxyphenyl)-9-[6-(methyl{4-[(RS)-(4,4,5,5,5-pentafluoropentyl)sulphinyl]butyl}amino)hexyl]-6,7-dihydro-5H-benzo[7]annulen-3-ol]
IC50: 2 nM

CN(CCCCCCC1=C(c2ccc(F)c(O)c2)CCCc2cc(O)ccc21)CCCCC[S+]([O-])CCCC(F)(F)C(F)(F)F (racemic) [Example 32, 8-(4-Fluoro-3-hydroxyphenyl)-9-[6-(methyl{5-[(RS)-(4,4,5,5,5-pentafluoropentyl)sulphinyl]pentyl}amino)hexyl]-6,7-dihydro-5H-benzo[7]annulen-3-ol]
IC50: 3 nM

CN(CCCCCCC1=C(c2ccc(F)c(O)c2)CCCc2cc(O)ccc21)CCCCCC[S+]([O-])CCCC(F)(F)C(F)(F)F (racemic) [Example 34, 8-(4-Fluoro-3-hydroxyphenyl)-9-[6-(methyl{6-[(RS)-(4,4,5,5,5-pentafluoropentyl)sulphinyl]hexyl}amino)hexyl]-6,7-dihydro-5H-benzo[7]annulen-3-ol]
IC50: 5 nM

CN(CCCCCC1=C(c2cccnc2)CCCc2cc(O)ccc21)CCC[S+]([O-])CCCC(F)(F)C(F)(F)F (racemic) [Example 40, 9-[5-(Methyl{3-[(RS)-(4,4,5,5,5-pentafluoropentyl)sulphinyl]propyl}amino)pentyl]-8-(3-pyridyl)-6,7-dihydro-5H-benzo[7]annulen-3-ol]
IC50: 27 nM

CN(CCCCCCC1=C(c2cccnc2)CCCc2cc(O)ccc21)CCC[S+]([O-])CCCC(F)(F)C(F)(F)F (racemic) [Example 43, 9-[6-(Methyl{3-[(RS)-(4,4,5,5,5-pentafluoropentyl)sulphinyl]propyl}amino)hexyl]-8-(3-pyridyl)-6,7-dihydro-5H-benzo[7]annulen-3-ol]
IC50: 8 nM

[O-][S+](CCCNCCCCCC1=C(c2ccccc2)CCCc2cc(O)ccc21)CCCC(F)(F)C(F)(F)F (racemic) [Example 50, 9-[5-({3-[(RS)-(4,4,5,5,5-Pentafluoropentyl)sulphinyl]propyl}amino)pentyl]-8-phenyl-6,7-dihydro-5H-benzo[7]annulen-3-ol]
IC50: 7 nM

CN(CCCCCCC1=C(c2cccc(O)c2)CCCc2cc(O)ccc21)CCC[S+]([O-])CCC(F)(F)F (racemic) [Example 55, 8-(3-Hydroxyphenyl)-9-[6-(methyl{3-[(RS)-(3,3,3-trifluoropropyl)sulphinyl]propyl}amino)hexyl]-6,7-dihydro-5H-benzo[7]annulen-3-ol]
IC50: 2 nM

CN(CCCCCCC1=C(c2ccccc2)CCCc2cc(O)ccc21)CCC[S+]([O-])CCC(F)(F)F (racemic) [Example 59, 9-[6-(Methyl{3-[(RS)-(3,3,3-trifluoropropyl)sulphinyl]propyl}amino)hexyl]-8-phenyl-6,7-dihydro-5H-benzo[7]annulen-3-ol]
IC50: 10 nM

CN(CCCCCCC1=C(c2ccccc2)CCCc2cc(O)ccc21)CCC[S+]([O-])CCC(F)(F)C(F)(F)F (racemic) [Example 61, 9-[6-(Methyl{3-[(RS)-(3,3,4,4,4-pentafluorobutyl)sulphinyl]propyl}amino)hexyl]-8-phenyl-6,7-dihydro-5H-benzo[7]annulen-3-ol]
IC50: 9 nM

CN(CCCCCCC1=C(c2ccccc2)CCCc2cc(O)ccc21)CCCC[S+]([O-])CCCC(F)(F)C(F)(F)F (racemic) [Example 66, 9-[6-(Methyl{4-[(RS)-(4,4,5,5,5-pentafluoropentyl)sulphinyl]butyl}amino)hexyl]-8-phenyl-6,7-dihydro-5H-benzo[7]annulen-3-ol]
IC50: 5 nM

CCN(CCCCCCC1=C(c2ccccc2)CCCc2cc(O)ccc21)CCC[S+]([O-])CCCC(F)(F)C(F)(F)F (racemic) [Example 68, 9-[6-(Ethyl{3-[(RS)-(4,4,5,5,5-pentafluoropentyl)sulphinyl]propyl}amino)hexyl]-8-phenyl-6,7-dihydro-5H-benzo[7]annulen-3-ol]
IC50: 5 nM

[O-][S+](CCCN(CCO)CCCCCCC1=C(c2ccccc2)CCCc2cc(O)ccc21)CCCC(F)(F)C(F)(F)F (racemic) [Example 70, 9-{6-[(2-Hydroxyethyl){3-[(RS)-(4,4,5,5,5-pentafluoropentyl)sulphinyl]propyl}amino]hexyl}-8-phenyl-6,7-dihydro-5H-benzo[7]annulen-3-ol]
IC50: 2 nM

[O-][S+](CCCN(CCCO)CCCCCCC1=C(c2ccccc2)CCCc2cc(O)ccc21)CCCC(F)(F)C(F)(F)F (racemic) [Example 72, 9-{6-[(3-Hydroxypropyl){3-[(RS)-(4,4,5,5,5-pentafluoropentyl)sulphinyl]propyl}amino]hexyl}-8-phenyl-6,7-dihydro-5H-benzo[7]annulen-3-ol]
IC50: 4 nM

CC(C)(O)CN(CCCCCCC1=C(c2ccccc2)CCCc2cc(O)ccc21)CCC[S+]([O-])CCCC(F)(F)C(F)(F)F (racemic) [Example 74, 9-{6-[(2-Hydroxy-2-methylpropyl){3-[(RS)-(4,4,5,5,5-pentafluoropentyl)sulphinyl]propyl}amino]hexyl}-8-phenyl-6,7-dihydro-5H-benzo[7]annulen-3-ol]
IC50: 3 nM

CCN(CCCCCCC1=C(c2ccccc2)CCCc2cc(O)ccc21)CCC[S+]([O-])CCC(F)(F)F (racemic) [Example 76, 9-[6-(Ethyl{3-[(RS)-(3,3,3-trifluoropropyl)sulphinyl]propyl}amino)hexyl]-8-phenyl-6,7-dihydro-5H-benzo[7]annulen-3-ol]
IC50: 23 nM
